{"source": "paper PMC7242238", "about": "(Clinical Drug Investigation, 2020)", "key": {"[1]": {"conditions": "12 healthy male subjects; single oral 2-mg doses of 14C-naldemedine; cited from earlier work"}, "healthy subjects [2]": {"tested_on": "healthy subjects", "experiment": "CYP3A inducer study: safety assessments", "conditions": "of 14 subjects; by treatment period"}, "[3]": {"format": "in vivo, human"}, "[4]": {"experiment": "CYP3A inducer study: pharmacokinetics of naldemedine alone or with rifampin", "format": "in vivo, human", "conditions": "for AUC(0-inf): AUC0–inf; for AUC(0-t): AUC0–last; for half-life: t1/2,z; for k el: λz"}, "[5]": {"format": "in vivo, human", "conditions": "for CL/F / AUC(0-inf) / AUC(0-t) / half-life / k el: Cohort 2: naldemedine 0.2 mg alone or with fluconazole 200 mg, n = 14; for AUC(0-inf): AUC0–inf; for AUC(0-t): AUC0–last; for half-life: t1/2,z; for k el: λz"}, "healthy subjects [6]": {"tested_on": "healthy subjects", "experiment": "CYP3A inhibitors study Cohort 1: safety assessments", "format": "in vivo, human", "conditions": "of 14 subjects, by treatment period"}, "healthy subjects [7]": {"tested_on": "healthy subjects", "experiment": "CYP3A inhibitors study Cohort 2: safety assessments", "format": "in vivo, human", "conditions": "of 14 subjects, by treatment period"}, "[8]": {"format": "in vivo, human", "conditions": "for CL/F / AUC(0-inf) / AUC(0-t) / half-life / k el: Cohort 1: naldemedine 0.2 mg alone or with itraconazole 200 mg, n = 14; for AUC(0-inf): AUC0–inf; for AUC(0-t): AUC0–last; for half-life: t1/2,z; for k el: λz"}, "healthy subjects [9]": {"tested_on": "healthy subjects", "experiment": "P-gp inhibitor study: safety assessments", "format": "in vivo, human", "conditions": "of 13 subjects"}, "healthy subjects [10]": {"tested_on": "healthy subjects", "conditions": "cited from earlier work"}, "[11]": {"tested_on": "spontaneous bowel movements", "conditions": "cited from earlier work"}, "[12]": {"conditions": "coadministration of cyclosporine 600 mg vs naldemedine 0.4 mg alone"}, "[13]": {"conditions": "male, human, plasma, oral, 0.4 mg"}, "[14]": {"conditions": "male, human, plasma, po, 0.4 mg"}, "[15]": {"conditions": "coadministration of rifampin 600 mg QD vs naldemedine 0.2 mg alone"}, "[16]": {"conditions": "human, plasma, oral, 0.2 mg, naldemedine 0.2 mg alone or with rifampin 600 mg QD, n = 14, geometric mean (CV %)"}, "[17]": {"conditions": "human, plasma, oral, 0.2 mg, naldemedine 0.2 mg alone or with rifampin 600 mg QD, n = 14, mean (SD)"}, "[18]": {"conditions": "coadministration of fluconazole vs naldemedine 0.2 mg alone"}, "[19]": {"conditions": "human, plasma, oral, 0.2 mg, geometric mean (CV %)"}, "[20]": {"conditions": "human, plasma, oral, 0.2 mg, mean (SD)"}, "[21]": {"conditions": "coadministration of itraconazole vs naldemedine 0.2 mg alone"}}, "note": "Where two headings read alike, the source gives them in different places.", "data": [{"smiles": "CC(C)(NC(=O)C1=C(O)[C@@H]2Oc3c(O)ccc4c3[C@@]23CCN[C@H](C4)[C@]3(O)C1)c1nc(-c2ccccc2)no1", "note": "[nor-naldemedine]", "values": [{"measurement": "share of the systemic exposure of unchanged naldemedine", "setting": "[1]", "result": "9–13%"}]}, {"smiles": "CC(C)(NC(=O)C1=C(O)[C@@H]2Oc3c(O)ccc4c3[C@@]23CCN(CC2CC2)[C@H](C4)[C@]3(O)C1)c1nc(-c2ccccc2)no1", "note": "[Naldemedine]", "values": [{"measurement": "subjects with TEAEs", "setting": "healthy subjects [2]", "result": "no TEAEs"}, {"measurement": "effect of coadministration on median naldemedine Tmax", "setting": "[3]; coadministration of cyclosporine", "result": "not notably affected"}, {"measurement": "increase of naldemedine AUC0–inf", "setting": "[3]; [12]", "result": 1.78, "unit": "fold"}, {"measurement": "increase of naldemedine AUC0–last", "setting": "[3]; [12]", "result": 1.79, "unit": "fold"}, {"measurement": "increase of naldemedine Cmax", "setting": "[3]; [12]", "result": 1.45, "unit": "fold"}, {"measurement": "AUC(0-inf)", "setting": "[3]; [13]", "result": 38.9, "unit": "ng·h/mL"}, {"measurement": "AUC(0-t)", "setting": "[3]; [13]", "result": 38.6, "unit": "ng·h/mL"}, {"measurement": "Cmax", "setting": "[3]; [13]", "result": 4.86, "unit": "ng/mL"}, {"measurement": "half-life", "setting": "[3]; [13]", "result": 636, "unit": "min"}, {"measurement": "k el", "setting": "[3]; [13]", "result": "1.81e-05", "unit": "s⁻¹"}, {"measurement": "AUC(0-inf)", "setting": "[3]; [14]", "result": 39.5, "unit": "ng·h/mL"}, {"measurement": "AUC(0-t)", "setting": "[3]; [14]", "result": 39.1, "unit": "ng·h/mL"}, {"measurement": "Cmax", "setting": "[3]; [14]", "result": 4.9, "unit": "ng/mL"}, {"measurement": "Tmax", "setting": "[3]; [14]", "result": 45, "unit": "min"}, {"measurement": "half-life", "setting": "[3]; [14]", "result": 642, "unit": "min"}, {"measurement": "k el", "setting": "[3]; [14]", "result": "1.82e-05", "unit": "s⁻¹"}, {"measurement": "CL/F", "setting": "[3]; naldemedine 0.4 mg alone or with cyclosporine 600 mg, n = 13, geometric mean (CV %)", "result": "10.3 (17.3) L/h"}, {"measurement": "effect of coadministration on median naldemedine Tmax", "setting": "[4]; coadministration of rifampin", "result": "not notably affected"}, {"measurement": "decrease of naldemedine AUC0–last", "setting": "[4]; [15]", "result": 83, "unit": "%"}, {"measurement": "decrease of naldemedine Cmax", "setting": "[4]; [15]", "result": 38, "unit": "%"}, {"measurement": "Cmax", "setting": "[4]; human, plasma, oral, 0.2 mg", "result": 2.72, "unit": "ng/mL"}, {"measurement": "Tmax", "setting": "[4]; human, plasma, oral, 0.2 mg", "result": 1, "unit": "h"}, {"measurement": "AUC(0-inf)", "setting": "[4]; [16]", "result": 21.8, "unit": "ng·h/mL"}, {"measurement": "AUC(0-inf)", "setting": "[4]; [17]", "result": 22.1, "unit": "ng·h/mL"}, {"measurement": "AUC(0-t)", "setting": "[4]; [16]", "result": 21.5, "unit": "ng·h/mL"}, {"measurement": "AUC(0-t)", "setting": "[4]; [17]", "result": 21.8, "unit": "ng·h/mL"}, {"measurement": "half-life", "setting": "[4]; [16]", "result": 702, "unit": "min"}, {"measurement": "half-life", "setting": "[4]; [17]", "result": 714, "unit": "min"}, {"measurement": "k el", "setting": "[4]; [16]", "result": "1.64e-05", "unit": "s⁻¹"}, {"measurement": "k el", "setting": "[4]; [17]", "result": "1.67e-05", "unit": "s⁻¹"}, {"measurement": "Cmax", "setting": "[4]; human, plasma, po, 0.2 mg", "result": 2.8, "unit": "ng/mL"}, {"measurement": "CL/F", "setting": "[4]; naldemedine 0.2 mg alone or with rifampin 600 mg QD, n = 14, geometric mean (CV %)", "result": "9.19 (19.2) L/h"}, {"measurement": "CL/F", "setting": "[4]; naldemedine 0.2 mg alone or with rifampin 600 mg QD, n = 14, mean (SD)", "result": "9.35 (1.86) L/h"}, {"measurement": "Tmax", "setting": "[4]; naldemedine 0.2 mg alone or with rifampin 600 mg QD, n = 14, median (range)", "result": "1.00 (0.50, 2.50) h"}, {"measurement": "CL/F", "setting": "[5]; geometric mean (CV %)", "result": "7.36 (16.5) L/h"}, {"measurement": "CL/F", "setting": "[5]; mean (SD)", "result": "7.45 (1.16) L/h"}, {"measurement": "effect of coadministration on median naldemedine Tmax", "setting": "[5]; coadministration of fluconazole", "result": "not notably affected"}, {"measurement": "increase of naldemedine AUC0–inf", "setting": "[5]; [18]", "result": 1.90, "unit": "fold"}, {"measurement": "increase of naldemedine AUC0–last", "setting": "[5]; [18]", "result": 1.88, "unit": "fold"}, {"measurement": "increase of naldemedine Cmax", "setting": "[5]; [18]", "result": 1.38, "unit": "fold"}, {"measurement": "Cmax", "setting": "[5]; human, plasma, oral, 0.2 mg", "result": 3.48, "unit": "ng/mL"}, {"measurement": "Tmax", "setting": "[5]; human, plasma, oral, 0.2 mg", "result": 1, "unit": "h"}, {"measurement": "AUC(0-inf)", "setting": "[5]; [19]", "result": 27.2, "unit": "ng·h/mL"}, {"measurement": "AUC(0-inf)", "setting": "[5]; [20]", "result": 27.5, "unit": "ng·h/mL"}, {"measurement": "AUC(0-t)", "setting": "[5]; [19]", "result": 26.9, "unit": "ng·h/mL"}, {"measurement": "AUC(0-t)", "setting": "[5]; [20]", "result": 27.3, "unit": "ng·h/mL"}, {"measurement": "half-life", "setting": "[5]; [19]", "result": 606, "unit": "min"}, {"measurement": "half-life", "setting": "[5]; [20]", "result": 624, "unit": "min"}, {"measurement": "k el", "setting": "[5]; [19]", "result": "1.9e-05", "unit": "s⁻¹"}, {"measurement": "k el", "setting": "[5]; [20]", "result": "1.95e-05", "unit": "s⁻¹"}, {"measurement": "Cmax", "setting": "[5]; human, plasma, po, 0.2 mg", "result": 3.57, "unit": "ng/mL"}, {"measurement": "subjects with TEAEs", "setting": "healthy subjects [6]", "result": 7.1, "unit": "%"}, {"measurement": "subjects with TEAEs", "setting": "healthy subjects [7]", "result": 7.1, "unit": "%"}, {"measurement": "CL/F", "setting": "[8]; geometric mean (CV %)", "result": "7.41 (37.7) L/h"}, {"measurement": "CL/F", "setting": "[8]; mean (SD)", "result": "8.03 (4.39) L/h"}, {"measurement": "effect of coadministration on median naldemedine Tmax", "setting": "[8]; coadministration of itraconazole", "result": "not notably affected"}, {"measurement": "increase of naldemedine AUC0–inf", "setting": "[8]; [21]", "result": 2.91, "unit": "fold"}, {"measurement": "increase of naldemedine AUC0–last", "setting": "[8]; [21]", "result": 2.65, "unit": "fold"}, {"measurement": "increase of naldemedine Cmax", "setting": "[8]; [21]", "result": 1.12, "unit": "fold"}, {"measurement": "Cmax", "setting": "[8]; human, plasma, oral, 0.2 mg", "result": 3.56, "unit": "ng/mL"}, {"measurement": "Tmax", "setting": "[8]; human, plasma, oral, 0.2 mg", "result": 45, "unit": "min"}, {"measurement": "AUC(0-inf)", "setting": "[8]; [19]", "result": 27, "unit": "ng·h/mL"}, {"measurement": "AUC(0-inf)", "setting": "[8]; [20]", "result": 28.3, "unit": "ng·h/mL"}, {"measurement": "AUC(0-t)", "setting": "[8]; [19]", "result": 26.7, "unit": "ng·h/mL"}, {"measurement": "AUC(0-t)", "setting": "[8]; [20]", "result": 28.1, "unit": "ng·h/mL"}, {"measurement": "half-life", "setting": "[8]; [19]", "result": 624, "unit": "min"}, {"measurement": "half-life", "setting": "[8]; [20]", "result": 642, "unit": "min"}, {"measurement": "k el", "setting": "[8]; [19]", "result": "1.85e-05", "unit": "s⁻¹"}, {"measurement": "k el", "setting": "[8]; [20]", "result": "1.9e-05", "unit": "s⁻¹"}, {"measurement": "Cmax", "setting": "[8]; human, plasma, po, 0.2 mg", "result": 3.77, "unit": "ng/mL"}, {"measurement": "subjects with TEAEs", "setting": "healthy subjects [9]; naldemedine 0.4 mg alone or plus cyclosporine 600 mg", "result": 7.7, "unit": "%"}, {"measurement": "subjects with headache (TEAE)", "setting": "healthy subjects [9]", "result": 7.7, "unit": "%"}, {"measurement": "dose linearity of pharmacokinetics", "setting": "healthy subjects [10]; dose range of 0.2–0.4 mg", "result": "linear pharmacokinetics"}, {"measurement": "safety and tolerability", "setting": "healthy subjects [10]; naldemedine doses of 0.1 to 100 mg, healthy subjects", "result": "safe and well tolerated"}, {"measurement": "clinical benefit compared with placebo", "setting": "[11]; naldemedine 0.1 mg", "result": "no significant differences"}, {"measurement": "clinical benefit (spontaneous bowel movements) compared with placebo", "setting": "[11]; naldemedine 0.2- and 0.4-mg doses", "result": "significant clinical benefits"}]}, {"smiles": "CCC(C)n1ncn(-c2ccc(N3CCN(c4ccc(OCC5COC(Cn6cncn6)(c6ccc(Cl)cc6Cl)O5)cc4)CC3)cc2)c1=O", "note": "(stereo not drawn) [itraconazole, reference compound]", "values": [{"measurement": "subjects with TEAEs", "setting": "healthy subjects [6]", "result": 14.3, "unit": "%"}]}]}
